In patent US10336751B2, “Tricyclic 4-pyridone-3-carboxylic acid derivatives for the treatment and prophylaxis of hepatitis B virus infection” (priority 2016, dated 2019):

Tested on: HBsAg
Experiment: HBsAg assay (CLIA) in HepG2.2.15 cells
Type: cell-based, HBV
Conditions: Hepatitis B virus, HepG2.2.15, read-out: IC50 (HBsAg secretion)
Description: HepG2.2.15 cells (Acs et al. Proc Natl Acad Sci USA, 84, (1987), 4641-4), a constitutively HBV-expressing cell line were cultured in DMEM+Glutamax-I medium (Invitrogen, Carlsbad, Calif., USA), supplemented with 10% fetal bovine serum (Invitrogen) and G418 (Invitrogen) at a final concentration of 200 mg/L and maintained in 5% CO2 at 37° C.
HepG2.2.15 cells were seeded in duplicate into white, 96-well plates at 1.5×10^4 cells/well. The cells were treated with a three-fold serial dilution series of the compounds in DMSO. The final DMSO concentration in all wells was 1% and DMSO was used as no drug control.
The HBsAg chemiluminescence immunoassay (CLIA) kit (Autobio Diagnostics Co., Zhengzhou, China, Catalog number: CL0310-2) was used to measure the levels of secreted HBV antigens semi-quantitatively. For the detection 50 μL/well culture supernatant was used and HBsAg was quantified using HBsAg chemiluminescence immunoassay (CLIA) kit (Autobio Diagnostics Co., Zhengzhou, China, Catalog number: CL0310-2), 50 μL of the supernatant was transferred to the CLIA assay plate and 50 μL of enzyme conjugate reagent was added into each well. The plates were sealed and gently agitated for 1 hour at room temperature. The supernatant-enzyme-mixture was discarded and wells were washed 6 times with 300 μL of PBS. The residual liquid was removed by plating the CLIA plate […] on absorbent tissue paper. 25 μL of substrates A and B were added to each well. Luminance was measured using a luminometer (Mithras LB 940 Multimode Microplate Reader) after 10 minutes incubation, Dose-response curves were generated and the IC50 value was extrapolated by using the E-WorkBook Suite (ID Business Solutions Ltd., Guildford, UK). The IC50 was defined as the compound concentration (or conditioned media log dilution) at which HBsAg secretion was reduced by 50% compared to the no drug control.
The compounds of the present invention were tested for their capacity to inhibit HBsAg as described herein. The Examples were tested in the above assay and found to have IC50 of about 0.001 μM to about 50.0 μM.

Structure (SMILES) | IC50 [nM]
COc1cc2c(cc1OC)-c1cc(=O)c(C(=O)O)cn1CCC2 [Example 1, 10,11-Dimethoxy-2-oxo-7,8-dihydro-6H-pyrido[2,1-a][2]benzazepine-3-carboxylic acid] | 35400
CCC1CCc2cc(OCc3ccccc3)c(OC)cc2-c2cc(=O)c(C(=O)O)cn21 (stereo not shown) [Example 2, 10-Benzyloxy-6-ethyl-11-methoxy-2-oxo-7,8-dihydro-6H-pyrido[2,1-a][2]benzazepine-3-carboxylic acid] | 1080
CCC1CCc2cc(OCCCOC)c(OC)cc2-c2cc(=O)c(C(=O)O)cn21 (stereo not shown) [Example 3, 6-Ethyl-11-methoxy-10-(3-methoxypropoxy)-2-oxo-7,8-dihydro-6H-pyrido[2,1-a][2]benzazepine-3-carboxylic acid] | 419
CCC1CCc2cc(OCCCCCCNC(=O)OC(C)(C)C)c(OC)cc2-c2cc(=O)c(C(=O)O)cn21 (stereo not shown) [Example 4, 10-[6-(Tert-butoxycarbonylamino)hexoxy]-6-ethyl-11-methoxy-2-oxo-7,8-dihydro-6H-pyrido[2,1-a][2]benzazepine-3-carboxylic acid] | 619
CCC1CCc2cc(OCCCCCCN)c(OC)cc2-c2cc(=O)c(C(=O)O)cn21 (stereo not shown) [Example 5, 10-(6-Aminohexoxy)-6-ethyl-11-methoxy-2-oxo-7,8-dihydro-6H-pyrido[2,1-a][2]benzazepine-3-carboxylic acid] | 602
CCC1CCc2cc(OCCCCCCNC(C)=O)c(OC)cc2-c2cc(=O)c(C(=O)O)cn21 (stereo not shown) [Example 6, 10-(6-Acetamidohexoxy)-6-ethyl-11-methoxy-2-oxo-7,8-dihydro-6H-pyrido[2,1-a][2]benzazepine-3-carboxylic acid] | 12400
CCC1CCc2cc(OCCCCCCNS(C)(=O)=O)c(OC)cc2-c2cc(=O)c(C(=O)O)cn21 (stereo not shown) [Example 7, 6-Ethyl-10-[6-(methanesulfonamido)hexoxy]-11-methoxy-2-oxo-7,8-dihydro-6H-pyrido[2,1-a][2]benzazepine-3-carboxylic acid] | 5870
CCC1CCc2cc(OCCCSC)c(OC)cc2-c2cc(=O)c(C(=O)O)cn21 (stereo not shown) [Example 8, 6-Ethyl-11-methoxy-10-(3-methylsulfanylpropoxy)-2-oxo-7,8-dihydro-6H-pyrido[2,1-a][2]benzazepine-3-carboxylic acid] | 1890
CCC1CCc2cc(OCCCS(C)(=O)=O)c(OC)cc2-c2cc(=O)c(C(=O)O)cn21 (stereo not shown) [Example 9, 6-Ethyl-11-methoxy-10-(3-methylsulfonylpropoxy)-2-oxo-7,8-dihydro-6H-pyrido[2,1-a][2]benzazepine-3-carboxylic acid] | 1070
CCC1CCc2cc(OCC(F)(F)F)c(OC)cc2-c2cc(=O)c(C(=O)O)cn21 (stereo not shown) [Example 10, 6-Ethyl-11-methoxy-2-oxo-10-(2,2,2-trifluoroethoxy)-7,8-dihydro-6H-pyrido[2,1-a][2]benzazepine-3-carboxylic acid] | 558
